Test results taken from patent US10105357B2, “Indication of antibiotic drugs for preparation of cancer inhibition pharmaceutical composition” (LAUNX BIOMEDICAL CO., LTD., priority 2014, dated 2018).
Where two headings read alike, the source gives them in different places.

What was measured:
Type in all cases: cell-based, human
[1] = tested on: A549 (Lung Adenocarcinoma); assay: Cell viability analysis, lung cancer A549; conditions: Homo sapiens
[2] = tested on: TSGH-8301 (Urinary Bladder Carcinoma); assay: Cell viability analysis, bladder cancer TSGH-8301; conditions: Homo sapiens
[3] = tested on: PC3 (p53−) (Prostate Adenocarcinoma); assay: Cell viability analysis, prostate cancer PC3; conditions: Homo sapiens
[4] = tested on: A375 (Amelanotic Melanoma); assay: Cell viability analysis, skin cancer A375; conditions: Homo sapiens
[5] = tested on: MCF7 (Mammary Gland, Adenocarcinoma); assay: Cell viability analysis, breast cancer MCF7; conditions: Homo sapiens
[6] = tested on: HL-60 (Acute Promyelocytic Leukemia); assay: Cell viability analysis, leukemia HL-60; conditions: Homo sapiens
[7] = tested on: HI650 (Lung Adenocarcinoma); assay: Cell viability analysis, lung cancer HI650; conditions: Homo sapiens
[8] = tested on: AGS (Gastric Adenocarcinoma); assay: Cell viability analysis, gastric cancer AGS; conditions: Homo sapiens
[9] = tested on: cancer cell lines; assay: Cell viability analysis (WST-1) on cancer cell lines; conditions: drug 10 μM, 72 hours, WST-1; Table 3
[10] = tested on: HepG2 (Hepatocellular Carcinoma); assay: Cell viability analysis, hepatic cancer HepG2; conditions: Homo sapiens
[11] = tested on: LoVo (Colorectal Adenocarcinoma); assay: Cell viability analysis, colon cancer LoVo; conditions: Homo sapiens, LoVo
[12] = tested on: HeLa (Cervix Adenocarcinoma); assay: Cell viability analysis, cervical cancer HeLa; conditions: Homo sapiens, HeLa
[13] = tested on: MKN-45 (Gastric Adenocarcinoma); assay: Cell viability analysis, gastric cancer MKN-45; conditions: Homo sapiens
[14] = A549, 72 h, drug 10 μM, 72 hours, WST-1, OD450 nm, read-out: cell viability (survival rate), A549
[15] = 72 h, drug 10 μM, 72 hours, WST-1, OD450 nm, read-out: cell viability (survival rate), TSGH
[16] = 72 h, drug 10 μM, 72 hours, WST-1, OD450 nm, read-out: cell viability (survival rate), PC3
[17] = A-375, 72 h, drug 10 μM, 72 hours, WST-1, OD450 nm, read-out: cell viability (survival rate), A375
[18] = MCF7, 72 h, drug 10 μM, 72 hours, WST-1, OD450 nm, read-out: cell viability (survival rate), MCF7
[19] = HL-60, 72 h, drug 10 μM, 72 hours, WST-1, OD450 nm, read-out: cell viability (survival rate), HL-60
[20] = NCI-H1650, 72 h, drug 10 μM, 72 hours, WST-1, OD450 nm, read-out: cell viability (survival rate), H1650
[21] = 72 h, drug 10 μM, 72 hours, WST-1, OD450 nm, read-out: cell viability (survival rate), AGS
[22] = HepG2, 72 h, drug 10 μM, 72 hours, WST-1, OD450 nm, read-out: cell viability (survival rate), HepG2
[23] = 72 h, read-out: cell viability (survival rate), LoVo, drug 10 μM, 72 hours, WST-1, OD450 nm
[24] = 72 h, drug 10 μM, 72 hours, WST-1, OD450 nm, read-out: cell viability (survival rate), HeLa
[25] = MKN-45, 72 h, drug 10 μM, 72 hours, WST-1, OD450 nm, read-out: cell viability (survival rate), MKN-45
[26] = A549, 72 h, read-out: cell viability (survival rate), A549, drug 10 μM, 72 hours, WST-1, OD450 nm
[27] = 72 h, read-out: cell viability (survival rate), TSGH, drug 10 μM, 72 hours, WST-1, OD450 nm
[28] = 72 h, read-out: cell viability (survival rate), PC3, drug 10 μM, 72 hours, WST-1, OD450 nm
[29] = A-375, 72 h, read-out: cell viability (survival rate), A375, drug 10 μM, 72 hours, WST-1, OD450 nm
[30] = MCF7, 72 h, read-out: cell viability (survival rate), MCF7, drug 10 μM, 72 hours, WST-1, OD450 nm
[31] = HL-60, 72 h, read-out: cell viability (survival rate), HL-60, drug 10 μM, 72 hours, WST-1, OD450 nm
[32] = NCI-H1650, 72 h, read-out: cell viability (survival rate), H1650, drug 10 μM, 72 hours, WST-1, OD450 nm
[33] = 72 h, read-out: cell viability (survival rate), AGS, drug 10 μM, 72 hours, WST-1, OD450 nm
[34] = HepG2, 72 h, read-out: cell viability (survival rate), HepG2, drug 10 μM, 72 hours, WST-1, OD450 nm
[35] = 72 h, read-out: cell viability (survival rate), HeLa, drug 10 μM, 72 hours, WST-1, OD450 nm
[36] = MKN-45, 72 h, read-out: cell viability (survival rate), MKN-45, drug 10 μM, 72 hours, WST-1, OD450 nm

| SMILES | viability at 10 µM [1, 14] [%] | viability at 10 µM [2, 15] [%] | viability at 10 µM [3, 16] [%] | viability at 10 µM [4, 17] [%] | viability at 10 µM [5, 18] [%] | viability at 10 µM [6, 19] [%] | viability at 10 µM [7, 20] [%] | inhibition effect on different cancer cell lines [9] | viability at 10 µM [11, 23] [%] | viability at 10 µM [1, 26] [%] | viability at 10 µM [2, 27] [%] | viability at 10 µM [3, 28] [%] | viability at 10 µM [4, 29] [%] | viability at 10 µM [5, 30] [%] | viability at 10 µM [6, 31] [%] | viability at 10 µM [7, 32] [%] | viability at 10 µM [8, 33] [%] | viability at 10 µM [10, 34] [%] | viability at 10 µM [12, 35] [%] | viability at 10 µM [13, 36] [%] | also measured |
| --- | --- | --- | --- | --- | --- | --- | --- | --- | --- | --- | --- | --- | --- | --- | --- | --- | --- | --- | --- | --- | --- |
| CC(=O)N[C@H]1[C@H]([C@H](O)[C@H](O)CO)OC(C(=O)O)=C[C@@H]1N=C(N)N [Zanamivir (Relenza), Zanamivir] | 93 | 88.5 | 106 | 51.5 | 69.6 | 146 | 62.7 | significant inhibition effect | 77.3 | – | – | – | – | – | – | – | – | – | – | – | viability at 10 µM [8, 21]: 75.1%; viability at 10 µM [10, 22]: 110%; viability at 10 µM [12, 24]: 71.8%; viability at 10 µM [13, 25]: 85.8% |
| CC1(C)S[C@@H]2[C@H](NC(=O)[C@H](NC(=O)N3CCN(S(C)(=O)=O)C3=O)c3ccccc3)C(=O)N2[C@H]1C(=O)O [Mezlocillin Sodium] | – | – | – | – | – | – | – | significant inhibition effect | 116 | 78 | 91.9 | 97.8 | 107 | 107 | 91.4 | 81 | 72.2 | 95.1 | 111 | 92.9 | – |
| C[C@@H]1C/C=C/C=C/C=C/C=C/[C@H](O[C@@H]2O[C@H](C)[C@@H](O)[C@H](N)[C@@H]2O)C[C@@H]2O[C@](O)(C[C@@H](O)C[C@H]3O[C@@H]3/C=C/C(=O)O1)C[C@H](O)[C@H]2C(=O)O [Natamycin (Pimaricin), Natamycin] | – | – | – | – | – | – | – | significant inhibition effect | 84.8 | 62.6 | 84.9 | 70 | 82.1 | 83.2 | 107 | 57 | 40.9 | 95.3 | 93.5 | 67.1 | – |
| NCC[C@H](O)C(=O)N[C@@H]1C[C@H](N)[C@@H](O[C@H]2O[C@H](CN)[C@@H](O)[C@H](O)[C@H]2O)[C@H](O)[C@H]1O[C@H]1O[C@H](CO)[C@@H](O)[C@H](N)[C@H]1O [Amikacin hydrate] | 111 | 138 | 102 | 87.7 | 81.4 | 108 | 87.7 | significant inhibition effect | 99 | – | – | – | – | – | – | – | – | – | – | – | viability at 10 µM [8, 21]: 85.8%; viability at 10 µM [10, 22]: 88.4%; viability at 10 µM [12, 24]: 96.3%; viability at 10 µM [13, 25]: 104% |
| Cc1cc(=O)n(-c2ccccc2)n1C [Antipyrine] | – | – | – | – | – | – | – | significant inhibition effect | – | – | – | – | – | – | – | – | – | – | – | – | viability at 10 µM ([1]; A549, drug 10 μM, 72 hours, WST-1, OD450 nm, read-out: cell viability (survival rate), A549): 76.4%; viability at 10 µM ([2]; drug 10 μM, 72 hours, WST-1, OD450 nm, read-out: cell viability (survival rate), TSGH): 90.1%; viability at 10 µM ([3]; drug 10 μM, 72 hours, WST-1, OD450 nm, read-out: cell viability (survival rate), PC3): 76.8%; viability at 10 µM ([4]; A-375, drug 10 μM, 72 hours, WST-1, OD450 nm, read-out: cell viability (survival rate), A375): 77.9%; viability at 10 µM ([5]; MCF7, drug 10 μM, 72 hours, WST-1, OD450 nm, read-out: cell viability (survival rate), MCF7): 61.3%; viability at 10 µM ([6]; HL-60, drug 10 μM, 72 hours, WST-1, OD450 nm, read-out: cell viability (survival rate), HL-60): 102%; viability at 10 µM ([7]; NCI-H1650, drug 10 μM, 72 hours, WST-1, OD450 nm, read-out: cell viability (survival rate), H1650): 57.3%; viability at 10 µM ([8]; drug 10 μM, 72 hours, WST-1, OD450 nm, read-out: cell viability (survival rate), AGS): 109%; viability at 10 µM ([10]; HepG2, drug 10 μM, 72 hours, WST-1, OD450 nm, read-out: cell viability (survival rate), HepG2): 105%; viability at 10 µM ([11]; drug 10 μM, 72 hours, WST-1, OD450 nm, read-out: cell viability (survival rate), LoVo): 97.1%; viability at 10 µM ([12]; drug 10 μM, 72 hours, WST-1, OD450 nm, read-out: cell viability (survival rate), HeLa): 76.8%; viability at 10 µM ([13]; MKN-45, drug 10 μM, 72 hours, WST-1, OD450 nm, read-out: cell viability (survival rate), MKN-45): 109% |
| COc1cc(C)c(/C=C/C(C)=C/C=C/C(C)=C/C(=O)O)c(C)c1C [Acitretin] | – | – | – | – | – | – | – | significant inhibition effect | – | – | – | – | – | – | – | – | – | – | – | – | viability at 10 µM ([1]; A549, 72 h, read-out: cell viability (survival rate), A549): 69.1%; viability at 10 µM ([2]; 72 h, read-out: cell viability (survival rate), TSGH): 127%; viability at 10 µM ([3]; 72 h, read-out: cell viability (survival rate), PC3): 92.5%; viability at 10 µM ([4]; A-375, 72 h, read-out: cell viability (survival rate), A375): 61.4%; viability at 10 µM ([5]; MCF7, 72 h, read-out: cell viability (survival rate), MCF7): 119%; viability at 10 µM ([6]; HL-60, 72 h, read-out: cell viability (survival rate), HL-60): 96.7%; viability at 10 µM ([7]; NCI-H1650, 72 h, read-out: cell viability (survival rate), H1650): 43.8%; viability at 10 µM ([8]; 72 h, read-out: cell viability (survival rate), AGS): 68.1%; viability at 10 µM ([10]; HepG2, 72 h, read-out: cell viability (survival rate), HepG2): 72.6%; viability at 10 µM ([11]; 72 h, read-out: cell viability (survival rate), LoVo): 83.6%; viability at 10 µM ([12]; 72 h, read-out: cell viability (survival rate), HeLa): 52.7%; viability at 10 µM ([13]; MKN-45, 72 h, read-out: cell viability (survival rate), MKN-45): 78.5% |
| CC(=O)S[C@@H]1CC2=CC(=O)CC[C@]2(C)[C@H]2CC[C@@]3(C)[C@@H](CC[C@@]34CCC(=O)O4)[C@H]12 [Spironolactone] | – | – | – | – | – | – | – | significant inhibition effect | 67.2 | 67.5 | 90.1 | 88.5 | 61 | 87.7 | 57.2 | 79.8 | 96.6 | 90.5 | 118 | 117 | – |
| CCc1cc(C(N)=S)ccn1 [Ethionamide] | – | – | – | – | – | – | – | significant inhibition effect | 86.5 | 42.4 | 53.2 | 85.3 | 76.6 | 36.4 | 102 | 78.3 | 53.7 | 97.7 | 44.8 | 45.4 | – |
| CCCNC(=O)NS(=O)(=O)c1ccc(Cl)cc1 [Chlorpropamide] | 36.9 | 59.1 | 44.4 | 62.1 | 32.5 | 96.7 | 55.8 | significant inhibition effect | 59.3 | – | – | – | – | – | – | – | – | – | – | – | viability at 10 µM [8, 21]: 51.2%; viability at 10 µM [10, 22]: 92.5%; viability at 10 µM [12, 24]: 59.9%; viability at 10 µM [13, 25]: 42.7% |
